Test results from patent publication US9593305B2, “Differentiation of pluripotent stem cells” (Janssen Biotech, Inc., priority 2008, dated 2017).
Values joined by “and” are separate entries in the source; they are usually repeats but may differ in a detail not shown here. Equal values may be shown once.

System: H1 human embryonic stem cells
Assay: Compounds and growth factors with low dose activin A (Example 9, Table 9)
Format: cell-based
[1] = 10 ng/ml AA + compound + EGF + FGF4 + PDGF-A + Muscimol + Wnt3a
[2] = 10 ng/ml AA + compound + EGF + FGF4 + PDGF-A + VEGF + PDGF-D + Muscimol + GDF8 + Wnt3a
[3] = 10 ng/ml AA + compound + EGF + FGF4 + PDGF-AB + VEGF + Wnt3a
[4] = 10 ng/ml AA + compound + EGF + FGF4 + PDGF-AB + Wnt3a
[5] = 10 ng/ml AA + compound + EGF + FGF4 + Wnt3a
[6] = 10 ng/ml AA + compound + EGF + Wnt3a
[7] = 10 ng/ml AA + compound + FGF4 + Wnt3a
[8] = 10 ng/ml AA alone, no compound, no growth factors
[9] = 100 ng/ml AA alone, no compound, no growth factors

CN1CCC(=O)NCCCNc2ncccc2-c2ncnc(n2)Nc2cccc(c2)C1 [Compound 39, 9-Methyl-2,3,4,5,7,8,9,10-octahydro-16H-17,21-(azeno)-11,15-(metheno)pyrido[3,2-g][1,3,5,9,13,17]hexaazacyclotricosin-6(1H)-one]
Cell Number, % of positive control [1]: 37.64 % of positive control | Cell Number, Average Total Cell Number [1]: 2879 | Sox17 Expression, % of positive control [1]: 3.24 % of positive control | Sox17 Expression, Average Total Intensity [1]: 3.61E+06 | Cell Number, % of positive control [2]: 75.00 % of positive control | Cell Number, Average Total Cell Number [2]: 5738 | Sox17 Expression, % of positive control [2]: 19.24 % of positive control | Sox17 Expression, Average Total Intensity [2]: 2.14E+07 | Cell Number, % of positive control [3]: 33.08 % of positive control | Cell Number, Average Total Cell Number [3]: 2531 | Sox17 Expression, % of positive control [3]: 2.53 % of positive control | Sox17 Expression, Average Total Intensity [3]: 2.82E+06 | Cell Number, % of positive control [4]: 39.07 % of positive control | Cell Number, Average Total Cell Number [4]: 2989 | Sox17 Expression, % of positive control [4]: −0.02 % of positive control | Sox17 Expression, Average Total Intensity [4]: −1.78E+04 | Cell Number, % of positive control [5]: 9.59 % of positive control | Cell Number, Average Total Cell Number [5]: 734 | Sox17 Expression, % of positive control [5]: −3.53 % of positive control | Sox17 Expression, Average Total Intensity [5]: −3.93E+06 | Cell Number, % of positive control [6]: 2.75 % of positive control | Cell Number, Average Total Cell Number [6]: 211 | Sox17 Expression, % of positive control [6]: −4.08 % of positive control | Sox17 Expression, Average Total Intensity [6]: −4.54E+06 | Cell Number, % of positive control [7]: 6.81 % of positive control | Cell Number, Average Total Cell Number [7]: 521 | Sox17 Expression, % of positive control [7]: −4.01 % of positive control | Sox17 Expression, Average Total Intensity [7]: −4.46E+06 | Cell Number, % of positive control (10 ng/ml AA + compound + Wnt3a): 6.78 % of positive control | Cell Number, Average Total Cell Number (10 ng/ml AA + compound + Wnt3a): 518 | Sox17 Expression, % of positive control (10 ng/ml AA + compound + Wnt3a): −2.13 % of positive control | Sox17 Expression, Average Total Intensity (10 ng/ml AA + compound + Wnt3a): −2.37E+06

Activin A: recombinant human activin A (PeproTech), TGF-beta family member
Cell Number, % of positive control [8]: 67.67 % of positive control and 100.00 % of positive control | Cell Number, Average Total Cell Number [8]: 5177 and 6132 | Cell Number, % of positive control [9]: 100.00 % of positive control and 157.51 % of positive control | Cell Number, Average Total Cell Number [9]: 7650 and 9658 | Sox17 Expression, % of positive control [9]: 100.00 % of positive control | Sox17 Expression, Average Total Intensity [9]: 1.11E+08 and 1.14E+08
